Assay results from the CheMixHub viscosity set.

Assay: xn = mol fraction of the nth substance listed

CCCC#N + CC(C)CO
viscosity [mPa·s], 101.33 kPa
Conditions	x2 = 0.0997	x2 = 0.2	x2 = 0.2986	x2 = 0.3982	x2 = 0.4962	x2 = 0.5918	x2 = 0.7022	x2 = 0.8004	x2 = 0.8991
298.15 K	0.582	0.626	0.69	0.778	0.895	1.051	1.315	1.672	2.273
308.15 K	0.516	0.551	0.6	0.667	0.756	0.874	1.069	1.323	1.742
318.15 K	0.462	0.489	0.528	0.58	0.648	0.737	0.881	1.066	1.363

C1=C[C@H]2[C@@H](C1)[C@H]1C=C[C@@H]2C1 + CC(C)O
viscosity [mPa·s], 101.2 kPa
Conditions	x1 = 0.1015	x1 = 0.1993	x1 = 0.2999	x1 = 0.4006	x1 = 0.4998	x1 = 0.5999	x1 = 0.6977	x1 = 0.7999	x1 = 0.8995
293.15 K	2.227	2.228	2.271	2.356	2.481	2.69	2.944	3.291	3.718
303.15 K	1.69	1.7	1.737	1.811	1.918	2.09	2.314	2.581	2.919
313.15 K	1.303	1.322	1.363	1.435	1.535	1.689	1.869	2.109	2.394

C1COCCO1 + CC(C)O
viscosity [mPa·s]
Conditions	298.15 K	303.15 K	308.15 K	313.15 K
101 kPa, x1 = 0.4	1.078	–	–	–
101 kPa, x2 = 0.1382	–	0.9888	0.9165	–
101 kPa, x2 = 0.2768	–	0.9414	0.8803	–
101 kPa, x2 = 0.3911	–	0.9353	0.8656	–
101 kPa, x2 = 0.4934	–	0.9403	0.8625	–
101 kPa, x2 = 0.5928	–	0.9543	0.8778	–
101 kPa, x2 = 0.6977	–	1.014	0.9221	–
101 kPa, x2 = 0.7841	–	1.112	1.012	–
101 kPa, x2 = 0.8535	–	1.259	1.128	–
101 kPa, x2 = 0.929	–	1.47	1.308	–
101.3 kPa, x1 = 0.038	1.821	1.578	1.38	1.218
101.3 kPa, x1 = 0.1103	1.479	1.312	1.17	1.039
101.3 kPa, x1 = 0.213	1.224	1.099	0.9913	0.8984
101.3 kPa, x1 = 0.3316	1.075	0.9775	0.887	0.8129
101.3 kPa, x1 = 0.3634	1.055	0.9613	0.8738	0.8044
101.3 kPa, x1 = 0.4318	1.014	0.9242	0.8492	0.7791
101.3 kPa, x1 = 0.5184	0.9926	0.91	0.835	0.7724
101.3 kPa, x1 = 0.6312	0.9873	0.9117	0.837	0.7769
101.3 kPa, x1 = 0.6592	0.9898	0.9161	0.8392	0.778
101.3 kPa, x1 = 0.787	1.048	0.9473	0.8747	0.8157
101.3 kPa, x1 = 0.891	1.101	1.01	0.9326	0.8715
101.3 kPa, x1 = 0.935	1.131	1.048	0.9724	0.8943

C[N+](C)(C)CC(=O)[O-] + CC(O)C(=O)O
viscosity [mPa·s]
Conditions	293.15 K	298.15 K	303.15 K	308.15 K	313.15 K	318.15 K	323.15 K
100 kPa, x2 = 0.667	–	1266	818.6	544.6	374.6	260.5	190.2
100 kPa, x2 = 0.833	386.6	245.3	167.7	120.4	86.1	65.5	50.6
101 kPa, x1 = 0.5	–	17780	–	–	–	6043	–

Brc1ccccc1 + CCC(C)=O
303.15 K, 101 kPa
Conditions	viscosity [mPa·s]
x2 = 0.1487	0.899
x2 = 0.2073	0.858
x2 = 0.3888	0.74
x2 = 0.5263	0.656
x2 = 0.7046	0.556
x2 = 0.8307	0.486

CC(C)N + CCC(C)=O
298.15 K, 101 kPa
Conditions	viscosity [mPa·s]
x2 = 0.0835	0.288
x2 = 0.1701	0.3
x2 = 0.26	0.314
x2 = 0.3534	0.33
x2 = 0.4505	0.345
x2 = 0.5515	0.358
x2 = 0.6567	0.37
x2 = 0.7663	0.371
x2 = 0.8806	0.372

C1COCCO1 + CCC(C)O
298.15 K, 101 kPa
Conditions	viscosity [mPa·s]
x1 = 0.0413	2.47
x1 = 0.1256	1.88
x1 = 0.236	1.474
x1 = 0.3042	1.324
x1 = 0.4175	1.173
x1 = 0.5	1.133
x1 = 0.5207	1.092
x1 = 0.5916	1.061
x1 = 0.7413	1.046
x1 = 0.8431	1.071
x1 = 0.9423	1.119

CCCC#N + CCC(C)O
viscosity [mPa·s], 101.33 kPa
Conditions	x2 = 0.1016	x2 = 0.1946	x2 = 0.2965	x2 = 0.3938	x2 = 0.4949	x2 = 0.5951	x2 = 0.6966	x2 = 0.7945	x2 = 0.8999
298.15 K	0.572	0.605	0.652	0.717	0.811	0.945	1.141	1.435	1.982
308.15 K	0.508	0.532	0.567	0.616	0.685	0.782	0.921	1.123	1.478
318.15 K	0.454	0.472	0.499	0.536	0.59	0.658	0.758	0.898	1.135

C1COCCO1 + CCCCCC
101 kPa
Conditions	viscosity [mPa·s]
303.15 K, x1 = 0.111	0.297
303.15 K, x1 = 0.1961	0.317
303.15 K, x1 = 0.3001	0.348
303.15 K, x1 = 0.4033	0.389
303.15 K, x1 = 0.4962	0.436
303.15 K, x1 = 0.5966	0.498
303.15 K, x1 = 0.7169	0.601
303.15 K, x1 = 0.8008	0.7
303.15 K, x1 = 0.8988	0.854
308.15 K, x1 = 0.1153	0.301
308.15 K, x1 = 0.2223	0.338
308.15 K, x1 = 0.3421	0.388
308.15 K, x1 = 0.4004	0.415
308.15 K, x1 = 0.5204	0.481
308.15 K, x1 = 0.7211	0.644
308.15 K, x1 = 0.8214	0.75
308.15 K, x1 = 0.9211	0.879
313.15 K, x1 = 0.1153	0.287
313.15 K, x1 = 0.2223	0.321
313.15 K, x1 = 0.3421	0.367
313.15 K, x1 = 0.4004	0.391
313.15 K, x1 = 0.5204	0.454
313.15 K, x1 = 0.6232	0.521
313.15 K, x1 = 0.7211	0.603
313.15 K, x1 = 0.8214	0.704
313.15 K, x1 = 0.9211	0.824
318.15 K, x1 = 0.1153	0.275
318.15 K, x1 = 0.2223	0.307
318.15 K, x1 = 0.3421	0.349
318.15 K, x1 = 0.4004	0.373
318.15 K, x1 = 0.5204	0.431
318.15 K, x1 = 0.6232	0.494
318.15 K, x1 = 0.7211	0.568
318.15 K, x1 = 0.8214	0.659
318.15 K, x1 = 0.9211	0.769

C1COCCO1 + CCCCCCC
viscosity [mPa·s], 101 kPa
Conditions	x1 = 0.1112	x1 = 0.225	x1 = 0.3223	x1 = 0.4312	x1 = 0.5017	x1 = 0.6114	x1 = 0.7213	x1 = 0.8211	x1 = 0.9112
308.15 K	0.363	0.396	0.422	0.471	0.505	0.572	0.658	0.76	0.875
313.15 K	0.354	0.381	0.409	0.446	0.475	0.535	0.618	0.713	0.814
318.15 K	0.336	0.362	0.387	0.421	0.449	0.504	0.579	0.666	0.764

C1COCCO1 + CCCCCCCC
viscosity [mPa·s], 101 kPa
Conditions	x1 = 0.1324	x1 = 0.2242	x1 = 0.3234	x1 = 0.4124	x1 = 0.5114	x1 = 0.6124	x1 = 0.7332	x1 = 0.8231	x1 = 0.9222
308.15 K	0.453	0.462	0.478	0.503	0.542	0.596	0.68	0.766	0.881
313.15 K	0.431	0.44	0.452	0.476	0.512	0.561	0.64	0.717	0.828
318.15 K	0.41	0.417	0.429	0.45	0.484	0.529	0.601	0.672	0.776

Brc1ccccc1 + CCCCCCCCCCCCCC
viscosity [mPa·s], 101 kPa
Conditions	x2 = 0.1001	x2 = 0.2007	x2 = 0.3005	x2 = 0.3996	x2 = 0.4985	x2 = 0.5998	x2 = 0.6987	x2 = 0.8012	x2 = 0.9011
298.15 K	1.117	1.185	1.287	1.389	1.49	1.592	1.694	1.796	1.897
303.15 K	1.042	1.13	1.218	1.306	1.394	1.482	1.57	1.658	1.746
308.15 K	0.985	1.06	1.137	1.213	1.289	1.365	1.441	1.517	1.593
